Measured values from patent publication US7855076B2, “Use of discoidin domain receptor 1 (DDR1) and agents that affect the DDR1/collagen pathway” (The United States of America as represented by the …, priority 2002, dated 2010).

Key:
Format in all cases: cell-based, human
THP-1 cells = test: Proliferation of PMA-treated THP-1 cells; conditions: DDR1b-overexpressing cells on collagen-coated plates, 10 nM PMA, 24 hour and 48 hour, compared with parental, mock or DDR1a cells
Experimental: One hundred μl of cell suspension (5×10^6/ml) were plated in 96-well tissue culture plates either uncoated or collagen-coated, and incubated at 37° C. in the presence of 10 nM phorbol 12-myristate 13 acetate (PMA) for 24 or 48 hours (FIG. 4A). Data are shown as the mean ±SD of 10 wells. *p<0.01 by Bonferroni/Dun with One Way Factorial ANOVA. Twenty μl of each cell lysate were loaded and Western blotting was performed. The expression levels of DDR1 in DDR1a- or DDR1b-overexpressing THP-1 cells before and after treatment with PMA plus collagen are shown in FIG. 4C. […]
One hundred μl of cell suspension (5×10^6/ml) were plated in 96-well tissue culture plates either collagen-coated or non-coated, and incubated at 37° C. in 5% CO2 humidified atmosphere in the presence of 10 nM PMA for 48 hours. Cell proliferation was measured by using the CellTiter 96 Aqueous Non-Radioactive Cell Proliferation Assay Kit (Promega, Madison, Wis.) according to the manufacture's protocol. Trypan-blue staining was also used to measure the number of live cells in each culture.

DDR1 protein = DDR1 protein expression in leukocytes by immunoprecipitation and Western blotting; conditions: PBMC; TNF-α 5 ng/ml or GM-CSF 10 ng/ml, 36 hours
Experimental: For Western blot analysis, cell lysates were prepared from freshly isolated PBMC, PBMC incubated overnight in RPMI 1640 containing 10% FCS, and MCF-7 cells. Cells were lysed on ice for 20 minutes in a buffer containing 50 mM Hepes, 150 mM NaCl, 1% Triton X-100, 10% glycerol, 10 mM NaF, 1 mM ethylenediamine tetraacetic acid, […], 1 mg/ml leupeptin, 1 mM phenylmethylsulfonyl fluoride, 1 mg/ml aprotinin, and 1 mg/ml pepstatin A. The lysates were spun, and the supernatants were collected. The samples were incubated with approximately 20 μl packed volume of PGS for 1 hour at 4° C. After centrifugation, supernatants were collected, mixed with 1 μg/ml normal rabbit IgG or polyclonal anti-human DDR1 IgG, and incubated for 1 hour at 4° C. PGS (20 μl) was then added and incubated for another 1 hour. IgG-coupled PGS was washed with the buffer containing 50 mM Hepes, 150 mM NaCl, 0.1% Triton X-100, 10% glycerol buffer three times, and 20 μl double-strength sample buffer (20% glycerol, 6% sodium dodecylsulfate (SDS), 10% 2-mercaptoethanol) was added. The samples were boiled for 10, minutes. Eluted proteins were analyzed on 7.5% polyacrylamide gels by SDS polyacrylamide gel electrophoresis (SDS-PAGE) and transferred electrophoretically to nitrocellulose membranes (Amersham, Arlington Heights, Ill.) at 200 mA for 2 hours by a semi-dry system. The membranes were incubated with polyclonal anti-human DDR1 or anti-phosphotyrosine IgG, followed by sheep anti-mouse IgG coupled with horseradish peroxidase (Amersham). Peroxidase activity was visualized by the Enhanced Chemiluminescence Detection System (Amersham).
There was no detectable DDR1 protein in freshly isolated PBMC. DDR1 protein was detected clearly after overnight incubation in RPMI 1640 containing 10% FCS. In order to study the kinetics of DDR1 protein expression, PBMC were incubated with or withour addition of TNF-α (5 ng/ml), or GM-CSF (10 ng/ml) for 36 hours and cell lysates were prepared. Cell lysates were subjected to immunoprecipitation with anti-DDR1 IgG or control IgG. […]

DDR1 = test: Cell-surface DDR1 expression on PMN by flow cytometry
Experimental: PMN were incubated in presence of IFN-γ or GM-CSF for 24 hours and the expression of cell-surface DDR1 was measured by flow cytometry using an antibody raised against the extracellular domain of the receptor. One hundred thousand cells were suspended in 50 μl of cold PBS containing 0.1% NaN3, […] BSA and 200 μg/ml human IgG in a Falcon 2052, tube, and incubated for 10 minutes on ice. One μg of anti-DDR1 rabbit polyclonal antibody raised aginst the N-terminus of DDR1 (Transgenic, Inc., Kumamoto, Japan), or control mouse IgG was added to each tube and the cells were incubated for another 15 minutes on ice. The cells were washed with PBS, and then incubated with 1 μg of FITC-conjugated goat anti-mouse IgG for 15 minutes on ice. At the end of incubation, PI was added to each tube (100 μM). The cells were washed by PBS, and subsequently analyzed by using a FACS scan (Becton Dickinson). Dead cells, determined by the incorporation of PI, were gated out. Results were processed by using the Cellquest software (Becton Dickinson).

Substance: collagen
- decrease of proliferation (THP-1 cells): about 50%

Substance: TNF-α
- level of DDR1 protein expression (DDR1 protein): increased
- IFNγ-induced DDR1 expression (DDR1): almost completely inhibited
